Laboratory results published in patent publication US6750228B1, “Aromatic sulfone hydroxamic acid metalloprotease inhibitor” (priority 1997, dated 2004).
Like-named read-outs stand apart in the source and are kept apart here.

Tests used:
Experiment in all cases: biochemical
MMP-1 = molecular target: T1, MMP-1 (Homo sapiens, UniProt P03956); settings: recombinant human MMP-1, MCA peptide substrate 4 μM, pH 7.5, room temperature; read-out: MMP-1 IC50
T1 construct: made in house; host or cells: transfected HT-1080 cells (provided by Dr. Harold Welgus, Washington University)
T1 sequence (P03956 100-469): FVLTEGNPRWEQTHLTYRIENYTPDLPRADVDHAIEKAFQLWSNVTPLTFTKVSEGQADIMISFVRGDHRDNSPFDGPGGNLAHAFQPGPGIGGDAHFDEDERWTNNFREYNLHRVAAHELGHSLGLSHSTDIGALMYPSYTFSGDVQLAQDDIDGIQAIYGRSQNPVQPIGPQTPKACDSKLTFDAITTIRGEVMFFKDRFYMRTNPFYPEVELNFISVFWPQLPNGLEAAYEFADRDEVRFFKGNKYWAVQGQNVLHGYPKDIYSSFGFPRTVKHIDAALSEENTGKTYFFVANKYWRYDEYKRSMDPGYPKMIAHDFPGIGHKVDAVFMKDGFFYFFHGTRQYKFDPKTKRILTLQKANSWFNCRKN
In short: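 Substrate MCA-PLGL-Dpa-AR-NH2 at 4 μM final; pH 7.5 Tris/NaCl/CaCl2 buffer with 0.05% polyethyleneglycol lauryl ether, 1% DMSO, room temperature. MMP-1 was expressed in transfected HT-1080 cells and APMA-activated.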

MMP-13 = molecular target: T2, MMP-13 (Homo sapiens, UniProt P45452)
T2 construct: made in house; host or cells: baculovirus / insect cells
In short: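 APMA- or trypsin-activated enzymes were preincubated with inhibitor for 5 min at room temperature, then the fluorogenic substrate MCA-Pro-Leu-Gly-Leu-Dpa-Ala-Arg-NH2 was added to a final 4 μM.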

MMP-2 = molecular target: T3, MMP-2 (Homo sapiens, UniProt P08253)
T3 construct: made in house; provided by Dr. Gregory Goldberg, Washington University
T3 sequence (P08253 110-660): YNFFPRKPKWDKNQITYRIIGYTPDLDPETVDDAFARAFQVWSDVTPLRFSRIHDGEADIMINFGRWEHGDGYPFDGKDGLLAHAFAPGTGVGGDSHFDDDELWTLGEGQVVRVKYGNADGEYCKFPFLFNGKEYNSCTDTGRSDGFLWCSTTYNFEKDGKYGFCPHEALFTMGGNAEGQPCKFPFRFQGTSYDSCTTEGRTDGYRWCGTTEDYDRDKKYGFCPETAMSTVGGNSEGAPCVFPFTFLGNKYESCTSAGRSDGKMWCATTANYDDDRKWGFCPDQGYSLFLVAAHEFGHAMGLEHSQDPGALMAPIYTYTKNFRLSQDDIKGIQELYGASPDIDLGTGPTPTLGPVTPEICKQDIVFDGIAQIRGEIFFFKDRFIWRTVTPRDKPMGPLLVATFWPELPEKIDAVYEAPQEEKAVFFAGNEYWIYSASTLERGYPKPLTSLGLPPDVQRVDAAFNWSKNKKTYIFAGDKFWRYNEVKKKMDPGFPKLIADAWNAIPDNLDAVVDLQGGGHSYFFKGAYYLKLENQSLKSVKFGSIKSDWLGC
In short: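 Assay buffer 100 mM Tris-HCl, 100 mM NaCl, 10 mM CaCl2, pH 7.5. Activated MMP + inhibitor, 5 min RT; then methoxycoumarin peptide substrate, 4 μM final. Readout fluorescence; IC50 calculated.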

[1] = recombinant human MMP-13, MCA peptide substrate 4 μM, pH 7.5, room temperature, read-out: MMP-13 IC50
[2] = recombinant human MMP-2, MCA peptide substrate 4 μM, pH 7.5, room temperature, read-out: MMP-2 IC50
[3] = MMP-13 IC50 (nM), recombinant human MMP-13, MCA peptide substrate 4 μM, pH 7.5, room temperature

IC50 (MMP-1)	IC50 (MMP-13; [1])	IC50 (MMP-2; [2])	Structure (SMILES)	IC50 (MMP-13; MMP-13 IC50 (nM))	IC50 (MMP-13; [3])	IC50 (MMP-2; MMP-2 IC50 (nM))
> 10000 nM	22.5 nM	250 nM	O=C(NCc1ccccc1)OC1CCN(c2ccc(S(=O)(=O)C3(C(=O)NO)CCOCC3)cc2)CC1 [Example 520]	–	–	–
> 10000 nM	3.5 nM	50 nM	O=C(Nc1ccccc1Cl)OC1CCN(c2ccc(S(=O)(=O)C3(C(=O)NO)CCOCC3)cc2)CC1 [Example 521]	–	–	–
> 10000 nM	2.4 nM	94 nM	COCc1ccc(COC2CCN(c3ccc(S(=O)(=O)C4(C(=O)NO)CCOCC4)cc3)CC2)cc1 [Example 522]	–	–	–
> 10000 nM	13 nM	10 nM	O=C(NO)C1(S(=O)(=O)c2ccc(N3CC[C@@H](OCc4ccc(F)cc4)C3)cc2)CCOCC1 [Example 531]	–	–	–
> 10000 nM	7.7 nM	120 nM	O=C(NO)C1(S(=O)(=O)c2ccc(N3CCC(Oc4cc(F)cc(F)c4)CC3)cc2)CCOCC1 [Example 545]	–	–	–
> 10000 nM	2.7 nM	18.6 nM	O=C(NO)C1(S(=O)(=O)c2ccc(N3CCC(Oc4ccc([N+](=O)[O-])cc4)CC3)cc2)CCOCC1 [Example 546]	–	–	–
> 10000 nM	5 nM	64.7 nM	O=C(NO)C1(S(=O)(=O)c2ccc(N3CCC(Oc4ccccc4F)CC3)cc2)CCOCC1 [Example 547]	–	–	–
> 10000 nM	40 nM	800 nM	O=C(NO)C1(S(=O)(=O)c2ccc(N3CCC(Oc4ccc([N+](=O)[O-])c(F)c4)CC3)cc2)CCOCC1 [Example 548]	–	–	–
> 10000 nM	55.3 nM	2900 nM	O=C(NO)C1(S(=O)(=O)c2ccc(N3CCC(Oc4cc(F)c([N+](=O)[O-])c(F)c4)CC3)cc2)CCOCC1 [Example 549]	–	–	–
> 10000 nM	20 nM	2000 nM	Cc1ccc([N+](=O)[O-])c(OC2CCN(c3ccc(S(=O)(=O)C4(C(=O)NO)CCOCC4)cc3)CC2)c1 [Example 550]	–	–	–
> 10000 nM	9 nM	140 nM	Cc1ccc(OC2CCN(c3ccc(S(=O)(=O)C4(C(=O)NO)CCOCC4)cc3)CC2)c([N+](=O)[O-])c1 [Example 551]	–	–	–
> 10000 nM	12.8 nM	140 nM	O=C(NO)C1(S(=O)(=O)c2ccc(N3CCC(Oc4ccccc4[N+](=O)[O-])CC3)cc2)CCOCC1 [Example 552]	–	–	–
> 10000 nM	12.8 nM	50 nM	Nc1ccc(OC2CCN(c3ccc(S(=O)(=O)C4(C(=O)NO)CCOCC4)cc3)CC2)cc1 [Example 553]	–	–	–
> 10000 nM	3.7 nM	140 nM	CC(C)OCc1ccc(COC2CCN(c3ccc(S(=O)(=O)C4(C(=O)NO)CCOCC4)cc3)CC2)cc1 [Example 554]	–	–	–
> 10000 nM	3.7 nM	220 nM	CC(C)COCc1ccc(COC2CCN(c3ccc(S(=O)(=O)C4(C(=O)NO)CCOCC4)cc3)CC2)cc1 [Example 555]	–	–	–
> 10000 nM	4.5 nM	170 nM	CCC(C)OCc1ccc(COC2CCN(c3ccc(S(=O)(=O)C4(C(=O)NO)CCOCC4)cc3)CC2)cc1 (stereo not drawn) [Example 556]	–	–	–
> 10000 nM	4.5 nM	66.4 nM	O=C(NO)C1(S(=O)(=O)c2ccc(N3CCC(OCc4ccc(F)cc4F)CC3)cc2)CCOCC1 [Example 558]	–	–	–
> 10000 nM	7.2 nM	80 nM	N#Cc1ccccc1COC1CCN(c2ccc(S(=O)(=O)C3(C(=O)NO)CCOCC3)cc2)CC1 [Example 559]	–	–	–
> 10000 nM	4.5 nM	306 nM	N#Cc1cccc(COC2CCN(c3ccc(S(=O)(=O)C4(C(=O)NO)CCOCC4)cc3)CC2)c1 [Example 560]	–	–	–

Continued, compound first:

Structure (SMILES)	IC50 (MMP-1)	IC50 (MMP-13; [1])	IC50 (MMP-2; [2])	IC50 (MMP-13; MMP-13 IC50 (nM))	IC50 (MMP-13; [3])	IC50 (MMP-2; MMP-2 IC50 (nM))
CCN(CC)Cc1ccc(COC2CCN(c3ccc(S(=O)(=O)C4(C(=O)NO)CCOCC4)cc3)CC2)cc1 [Example 523]	> 10000 nM	2.4 nM	190 nM	–	–	–
COC1CCCN(c2ccc(S(=O)(=O)C3(C(=O)NO)CCOCC3)cc2)C1 (stereo not drawn) [Example 524]	> 10000 nM	2700 nM	6400 nM	–	–	–
COCC1CCCN(c2ccc(S(=O)(=O)C3(C(=O)NO)CCOCC3)cc2)C1 (stereo not drawn) [Example 525]	> 10000 nM	290 nM	700 nM	–	–	–
O=C(NO)C1(S(=O)(=O)c2ccc(N3CC[C@@H](COCc4ccc(F)cc4)C3)cc2)CCOCC1 [Example 526]	> 10000 nM	> 10000 nM	> 10000 nM	–	–	–
O=C(NO)C1(S(=O)(=O)c2ccc(N3CC[C@@H](COCc4ccc(OC(F)(F)F)cc4)C3)cc2)CCOCC1 [Example 527]	> 10000 nM	6700 nM	9000 nM	–	–	–
COC[C@@H]1CCN(c2ccc(S(=O)(=O)C3(C(=O)NO)CCOCC3)cc2)C1 [Example 529]	> 10000 nM	8800 nM	> 10000 nM	–	–	–
O=C(NO)C1(S(=O)(=O)c2ccc(N3CC[C@@H](OCc4ccccc4)C3)cc2)CCOCC1 [Example 530]	> 10000 nM	20 nM	60.7 nM	–	–	–
O=C(NO)C1(S(=O)(=O)c2ccc(N3CC[C@@H](OCc4cccc(C(F)(F)F)c4)C3)cc2)CCOCC1 [Example 532]	> 10000 nM	10 nM	150 nM	–	–	–
CO[C@@H]1CCN(c2ccc(S(=O)(=O)C3(C(=O)NO)CCOCC3)cc2)C1 [Example 533]	> 10000 nM	60 nM	150 nM	–	–	–
O=C(NO)C1(S(=O)(=O)c2ccc(N3CCN(c4cc(C(F)(F)F)ccn4)CC3)cc2)CCOCC1 [Example 534]	> 10000 nM	30 nM	480 nM	–	–	–
Cc1ccc(N2CCN(c3ccc(S(=O)(=O)C4(C(=O)NO)CCOCC4)cc3)CC2)cc1 [Example 535]	> 10000 nM	–	35 nM	1.9 nM	–	–
Cc1ccccc1N1CCN(c2ccc(S(=O)(=O)C3(C(=O)NO)CCOCC3)cc2)CC1 [Example 536]	> 10000 nM	7.7 nM	88 nM	–	–	–
O=C(c1ccco1)N1CCN(c2ccc(S(=O)(=O)C3(C(=O)NO)CCOCC3)cc2)CC1 [Example 537]	5200 nM	70 nM	55 nM	–	–	–
O=C(NO)C1(S(=O)(=O)c2ccc(N3CCN(Cc4ccccc4)CC3)cc2)CCOCC1 [Example 538]	> 10000 nM	80 nM	370 nM	–	–	–
CC(=O)N1CCN(c2ccc(S(=O)(=O)C3(C(=O)NO)CCOCC3)cc2)CC1 [Example 539]	> 10000 nM	270 nM	350 nM	–	–	–
O=C(NO)C1(S(=O)(=O)c2ccc(N3CCC(c4cccc5ccccc45)CC3)cc2)CCOCC1 [Example 540]	> 10000 nM	–	500 nM	–	11.4 nM	–
O=C(NO)C1(S(=O)(=O)c2ccc(N3CCC(c4ccc(Cl)cc4)CC3)cc2)CCOCC1 [Example 541]	> 10000 nM	–	2 nM	–	0.7 nM	–
O=C(NO)C1(S(=O)(=O)c2ccc(N3CCC(c4ccccc4-c4ccc(F)cc4)CC3)cc2)CCOCC1 [Example 543]	> 10000 nM	–	5400 nM	–	33.7 nM	–
CCOc1ccccc1C1CCN(c2ccc(S(=O)(=O)C3(C(=O)NO)CCOCC3)cc2)CC1 [Example 544]	> 10000 nM	35 nM	–	–	–	3100 nM
N#Cc1ccccc1-c1ccc(COC2CCN(c3ccc(S(=O)(=O)C4(C(=O)NO)CCOCC4)cc3)CC2)cc1 [Example 557]	> 10000 nM	16.9 nM	200 nM	–	–	–
COc1c(F)c(F)c(COC2CCN(c3ccc(S(=O)(=O)C4(C(=O)NO)CCOCC4)cc3)CC2)c(F)c1F [Example 561]	> 10000 nM	6 nM	500 nM	–	–	–
CCOC1CCCN(c2ccc(S(=O)(=O)C3(C(=O)NO)CCOCC3)cc2)C1 (stereo not drawn) [Example 562]	> 10000 nM	1200 nM	6300 nM	–	–	–
